Experimental data as given in the NIST ThermoML archive (doi:10.1021/je100237h).

Settings: 101.33 kPa, Liquid, Concentric cylinders viscometry

CCOC(=O)CCCCC(=O)OCC [diethyl hexanedioate]
Settings	viscosity [mPa·s]
283.15 K	4.57
288.15 K	3.99
293.15 K	3.51
298.15 K	3.12
303.15 K	2.79
308.15 K	2.51
313.15 K	2.28
318.15 K	2.07
323.15 K	1.9
328.15 K	1.75
333.15 K	1.61
338.15 K	1.49
343.15 K	1.39
348.15 K	1.29
353.15 K	1.21
358.15 K	1.13
363.15 K	1.06
368.15 K	1
373.15 K	0.94
